Reference: US4071411A, “Antitumor antibiotics aclacinomycins A and B [RD-9187A]” (priority 1974, dated 1978)
≈ marks a conversion by molar mass, not a printed value. Entries after “also recorded” stand apart in the source; their conditions may differ.

Key:
[1] = tested on: B. cereus ATCC 9634; assay: antimicrobial spectrum, broth dilution method; type: cell-based; conditions: Bacillus cereus, ATCC9634, read-out: Minimum Inhibitory Concentration
Protocol: (§1) 1. The antimicrobial spectrum of aclacinomycins A and B was determined by the broth dilution method as follows: […]

[2] = tested on: B. megaterium; assay: antimicrobial spectrum, broth dilution method; type: cell-based; conditions: Priestia megaterium, read-out: Minimum Inhibitory Concentration
Protocol: as §1

[3] = tested on: Bacillus subtilis ATCC 6633; assay: antimicrobial spectrum, broth dilution method; type: cell-based; conditions: ATCC6633, read-out: Minimum Inhibitory Concentration
Protocol: as §1

[4] = tested on: Can tropicalis IAM 4924; assay: antimicrobial spectrum, broth dilution method; type: cell-based; conditions: read-out: Minimum Inhibitory Concentration
Protocol: as §1

[5] = tested on: Can. albicans IAM 4905; assay: antimicrobial spectrum, broth dilution method; type: cell-based; conditions: Candida albicans, IAM4905, read-out: Minimum Inhibitory Concentration
Protocol: as §1

[6] = tested on: Cory. bovis 1810; assay: antimicrobial spectrum, broth dilution method; type: cell-based; conditions: Corynebacterium bovis, 1810, read-out: Minimum Inhibitory Concentration
Protocol: as §1

[7] = tested on: Diplo. pneumoniae Type 1; assay: antimicrobial spectrum, broth dilution method; type: cell-based; conditions: Streptococcus pneumoniae, TYPE1, read-out: Minimum Inhibitory Concentration
Protocol: as §1

[8] = tested on: Diplo. pneumoniae Type 3; assay: antimicrobial spectrum, broth dilution method; type: cell-based; conditions: Streptococcus pneumoniae, TYPE3, read-out: Minimum Inhibitory Concentration
Protocol: as §1

[9] = tested on: E. coli K12; assay: antimicrobial spectrum, broth dilution method; type: cell-based; conditions: Escherichia coli, K12, read-out: Minimum Inhibitory Concentration
Protocol: as §1

[10] = tested on: Kl. pneumoniae ATCC 10031; assay: antimicrobial spectrum, broth dilution method; type: cell-based; conditions: Klebsiella pneumoniae, ATCC10031, read-out: Minimum Inhibitory Concentration
Protocol: as §1

[11] = tested on: Mic. flavus; assay: antimicrobial spectrum, broth dilution method; type: cell-based; conditions: Micrococcus flavus, read-out: Minimum Inhibitory Concentration
Protocol: as §1

[12] = tested on: Mycobact. smegmatis ATCC 607; assay: antimicrobial spectrum, broth dilution method; type: cell-based; conditions: read-out: Minimum Inhibitory Concentration
Protocol: as §1

[13] = tested on: Ps. aeruginosa A20229; assay: antimicrobial spectrum, broth dilution method; type: cell-based; conditions: Pseudomonas aeruginosa, A20229, read-out: Minimum Inhibitory Concentration
Protocol: as §1

[14] = tested on: Sar. lutea ATCC 9341; assay: antimicrobial spectrum, broth dilution method; type: cell-based; conditions: Micrococcus luteus, ATCC9341, read-out: Minimum Inhibitory Concentration
Protocol: as §1

[15] = tested on: St. pyogenes NY 5; assay: antimicrobial spectrum, broth dilution method; type: cell-based; conditions: Streptococcus pyogenes, NY5, read-out: Minimum Inhibitory Concentration
Protocol: as §1

[16] = tested on: Staph. aureus FDA 209P; assay: antimicrobial spectrum, broth dilution method; type: cell-based; conditions: Staphylococcus aureus, FDA209P, read-out: Minimum Inhibitory Concentration
Protocol: as §1

[17] = tested on: Staph. aureus Smith; assay: antimicrobial spectrum, broth dilution method; type: cell-based; conditions: Staphylococcus aureus, read-out: Minimum Inhibitory Concentration
Protocol: as §1

[18] = tested on: Strept. faecalis; assay: antimicrobial spectrum, broth dilution method; type: cell-based; conditions: Enterococcus faecalis, read-out: Minimum Inhibitory Concentration
Protocol: as §1

[19] = tested on: Gram-positive bacteria and yeasts; assay: antimicrobial activity (summary in words); type: cell-based
[20] = tested on: P388 cells or L1210 cells; assay: survival of BDF1 mice inoculated with P388 or L1210 cells; type: in vivo; conditions: for T/C / 30 day survivors / Mean survival time: daily for 10 days; for 30 day survivors: control 0/8; for Mean survival time: control 10.0
Protocol: 2. […] For example, when BDF1 mice weighing 18 to 22 grams are inoculated with 1 × 10^6 cells of P388 cells or 5 × 10^5 cells of L1210 cells intraperitoneally and aclacinomycin A and B and aclacinomycin A-DNA complex are administered intraperitoneally once daily for 10 days consecutively 24 hours after the inoculation, the survival time of the mice is prolonged remarkably at the rate of over 150% in a dosage range of 0.5 to 5 mg./kg. of body weight per day compared with control mice receiving no antibiotic, as shown in the following table: […]

[21] = acute toxicity, single injection; type: in vivo, Rat; conditions: rat, in vivo, single injection
[22] = tested on: Rat; assay: acute toxicity, single injection; type: in vivo; conditions: rats
[23] = tested on: rabbits; assay: lethal dose (LD50) on rabbits; type: in vivo
[24] = tested on: hamsters; assay: acute cardiac alterations in the electrocardiograms of hamsters / cardiotoxicity; conditions: hamster, in vivo
[25] = tested on: L1210 cells; assay: cells; type: cell-based, mice; conditions: 3 days
[26] = tested on: RNA synthesis (L1210 cells); assay: cells; type: cell-based, mice
[27] = tested on: Protein synthesis (L1210 cells); assay: cells; type: cell-based, mice; conditions: Mus musculus, L1210, 1 h; 14C-precursor incorporation, 37° C., 60 min.; read-out: ID50, Protein synthesis
[28] = tested on: nucleic acid biosynthesis (L1210 cells); type: cell-based, mice; conditions: below 1 mcg./ml. in the medium, 60 min.
[29] = tested on: lymphoma 6C3HED; assay: lymphoma 6C3HED in mice (summary in words); type: in vivo
[30] = tested on: leukemia L1210; assay: leukemia L1210 in mice (summary in words); type: in vivo
[31] = tested on: various animal tumors; assay: antitumor activity in animal tumors (summary in words); type: in vivo; conditions: experimental animal tumors
[32] = tested on: cultured mammalian tumor cells; assay: growth of tumor cells in culture (summary in words); type: cell-based
[33] = solubility
[34] = basicity and lipophilicity

## CCC1(O)CC(OC2CC(N(C)C)C(OC3CC4OC5CC(=O)C(C)OC5OC4C(C)O3)C(C)O2)c2c(cc3c(c2O)C(=O)c2c(O)cccc2C3=O)C1C(=O)OC (stereo not drawn) [Aclacinomycin B]
[1]
  MIC: < 0.2 µg/mL
[2]
  MIC: < 0.2 µg/mL
[3]
  MIC: < 0.2 µg/mL
[4]
  MIC: 20 µg/mL (≈ 24.7 µM)
[5]
  MIC: 10 µg/mL (≈ 12.3 µM)
[6]
  MIC: < 0.2 µg/mL
[7]
  MIC: 0.63 µg/mL (≈ 0.778 µM)
[8]
  MIC: 0.63 µg/mL (≈ 0.778 µM)
[9]
  MIC: > 100 µg/mL
[10]
  MIC: > 100 µg/mL
[11]
  MIC: < 0.2 µg/mL
[12]
  MIC: 5 µg/mL (≈ 6.17 µM)
[13]
  MIC: > 100 µg/mL
[14]
  MIC: < 0.2 µg/mL
[15]
  MIC: 1.25 µg/mL (≈ 1.54 µM)
[16]
  MIC: < 0.2 µg/mL
[17]
  MIC: < 0.2 µg/mL
[18]
  MIC: 2.5 µg/mL (≈ 3.09 µM)
[19]
  antimicrobial activity: effective in inhibiting the growth; also recorded: strong antimicrobial activity
[20]; 0.5 mg./kg./day i.p.
  T/C: 147%
  30 day survivors: 0/4
  Mean survival time: 14.7 days
[20]; 1.0 mg./kg./day i.p.
  T/C: 190%
  30 day survivors: 1/4
  Mean survival time: 19.0 days
[20]; 2.0 mg./kg./day i.p.
  T/C: 175%
  30 day survivors: 0/4
  Mean survival time: 17.5 days
[20]; 4.0 mg./kg./day i.p.
  T/C: 85%
  30 day survivors: 0/4
  Mean survival time: 8.5 days
[20]; dosage range 0.5 to 5 mg./kg. per day, i.p. daily for 10 days
  survival time prolonged, rate compared with control mice: over 150%
[21]; ip, intraperitoneal
  LD50: 10 to 15 mg/kg
[21]; intravenous
  LD50: 15 mg/kg
[22]
  lethal dose (LD50), in words: high lethal dose
[23]
  lethal dose (LD50), in words: high lethal dose
[24]
  cardiotoxicity on hamsters: extremely low cardiotoxicity
[25]; Mus musculus, L1210, 72 h, 37° C., read-out: ID50, growth
  IC50: 0.24 µg/mL (≈ 0.296 µM)
[25]; below 1 mcg./ml. in the medium
  inhibition of cell growth: over 50%
[26]
  inhibition of RNA synthesis (in words): specific inhibition on RNA synthesis
[26]; Mus musculus, L1210, 1 h, 14C-precursor incorporation, 37° C., 60 min., read-out: ID50, RNA synthesis
  IC50: 0.2 µg/mL (≈ 0.247 µM)
[27]
  IC50: 12 µg/mL (≈ 14.8 µM)
[28]
  inhibition of nucleic acid biosynthesis: over 50%
[29]
  life prolongation, mice inoculated with lymphoma 6C3HED: markedly prolong the lives
[30]
  inhibition of growth of leukemia L1210: effective in inhibiting the growth
  life prolongation, mice inoculated with leukemia L1210: markedly prolong the lives
[31]
  antitumor activity (in words): marked inhibitory effects; also recorded: potent antitumor activity
[32]
  inhibition of growth of tumor cells in culture (in words): remarkable inhibitory effect
[33]; acidic water
  solubility in acidic water: soluble
[33]; ether, hexane, cyclohexane, petroleum ether as listed
  solubility in low polar solvents: insoluble
[33]; methanol, ethanol, chloroform, ethyl acetate, acetone etc.
  solubility in organic solvents: soluble
[33]; water
  solubility in water: slightly soluble
[34]
  basicity: weakly basic
  lipophilicity: lipophilic
